According to the supplement of paper PMC10307832:

Columns and labels:
Assay in all cases: relative viability (nuclei count vs DMSO), 5 days (fraction); higher = more cells survive
EKVX = tested on: EKVX
Summary of the method: (§1)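 Relative viability is defined as nuclei in treated wells over nuclei in vehicle wells. Duplicate plates were run and medians reported. Lung cancer cell lines in 1536-well plates were dosed by pin tool one day after seeding, with one drug or with a fixed anchor-drug dose plus five library-drug doses (not always all listed) in √10 steps, and nuclei were counted after 5 days.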

HCC-15 = tested on: HCC-15
Summary of the method: as §1

LCLC-103H = tested on: LCLC-103H
Summary of the method: as §1

NCI-H1395 = tested on: NCI-H1395
Summary of the method: as §1

NCI-H1623 = tested on: NCI-H1623
Summary of the method: as §1

NCI-H1755 = tested on: NCI-H1755
Summary of the method: as §1

UMC-11 = tested on: UMC-11
Summary of the method: as §1

A549 = tested on: A549
Summary of the method: as §1

Calu-6 = tested on: Calu-6
Summary of the method: as §1

EBC-1 = tested on: EBC-1
Summary of the method: as §1

HCC-44 = tested on: HCC-44
Summary of the method: as §1

IA-LM = tested on: IA-LM
Summary of the method: as §1

NCI-H1299 = tested on: NCI-H1299
Summary of the method: as §1

NCI-H1648 = tested on: NCI-H1648
Summary of the method: as §1

NCI-H1703 = tested on: NCI-H1703
Summary of the method: as §1

Molecule `Cc1sc2c(c1C)C(c1ccc(Cl)cc1)=N[C@@H](CC(=O)OC(C)(C)C)c1nnc(C)n1-2` [JQ1] + Cc1nc(Nc2ncc(C(=O)Nc3c(C)cccc3Cl)s2)cc(N2CCN(CCO)CC2)n1 [Dasatinib] (partner 0.075 µM) has a relative viability (EKVX; first compound 0.04 µM) of 0.517, a relative viability (EKVX; first compound 0.4 µM) of 0.473 and a relative viability (EKVX; first compound 1.265 µM) of 0.45. The relative viability (EKVX; first compound 4 µM) was 0.417, the relative viability (HCC-15; first compound 0.04 µM) was 0.524 and the relative viability (HCC-15; first compound 0.4 µM) was 0.5. For the same molecule, the relative viability (HCC-15; first compound 1.265 µM) was 0.339, the relative viability (HCC-15; first compound 4 µM) was 0.227 and the relative viability (LCLC-103H; first compound 0.04 µM) was 0.433. For the same molecule, the relative viability (LCLC-103H; first compound 0.1265 µM) was 0.418, the relative viability (LCLC-103H; first compound 0.4 µM) was 0.464 and the relative viability (LCLC-103H; first compound 1.265 µM) was 0.327. For the same molecule, the relative viability (LCLC-103H; first compound 4 µM) was 0.266, the relative viability (NCI-H1395; first compound 0.04 µM) was 0.36 and the relative viability (NCI-H1395; first compound 0.1265 µM) was 0.364. The relative viability (NCI-H1395; first compound 0.4 µM) was 0.362, the relative viability (NCI-H1395; first compound 1.265 µM) was 0.355 and the relative viability (NCI-H1395; first compound 4 µM) was 0.388. It also gave a relative viability (NCI-H1623; first compound 0.04 µM) of 0.634, a relative viability (NCI-H1623; first compound 0.1265 µM) of 0.483 and a relative viability (NCI-H1623; first compound 0.4 µM) of 0.466. It also gave a relative viability (NCI-H1623; first compound 1.265 µM) of 0.357, a relative viability (NCI-H1623; first compound 4 µM) of 0.32 and a relative viability (NCI-H1755; first compound 0.04 µM) of 0.421. It also gave a relative viability (NCI-H1755; first compound 0.1265 µM) of 0.277, a relative viability (NCI-H1755; first compound 0.4 µM) of 0.373 and a relative viability (NCI-H1755; first compound 1.265 µM) of 0.343. The relative viability (NCI-H1755; first compound 4 µM) was 0.2, the relative viability (UMC-11; first compound 0.04 µM) was 0.501 and the relative viability (UMC-11; first compound 0.1265 µM) was 0.43. It also gave a relative viability (UMC-11; first compound 0.4 µM) of 0.321, a relative viability (UMC-11; first compound 1.265 µM) of 0.239 and a relative viability (UMC-11; first compound 4 µM) of 0.221.
`Cc1sc2c(c1C)C(c1ccc(Cl)cc1)=N[C@@H](CC(=O)OC(C)(C)C)c1nnc(C)n1-2` [JQ1] + O=C(c1cc(Cc2n[nH]c(=O)c3ccccc23)ccc1F)N1CCN(C(=O)C2CC2)CC1 [Olaparib] (partner 8 µM) showed a relative viability (A549; first compound 0.04 µM) of 0.303, a relative viability (A549; first compound 0.1265 µM) of 0.213 and a relative viability (A549; first compound 0.4 µM) of 0.255. It also gave a relative viability (A549; first compound 1.265 µM) of 0.102, a relative viability (A549; first compound 4 µM) of 0.045 and a relative viability (Calu-6; first compound 0.04 µM) of 0.536. The relative viability (Calu-6; first compound 0.1265 µM) was 0.408, the relative viability (Calu-6; first compound 0.4 µM) was 0.511 and the relative viability (Calu-6; first compound 1.265 µM) was 0.251. For the same molecule, the relative viability (Calu-6; first compound 4 µM) was 0.249, the relative viability (EBC-1; first compound 0.04 µM) was 0.74 and the relative viability (EBC-1; first compound 0.1265 µM) was 0.473. It also gave a relative viability (EBC-1; first compound 0.4 µM) of 0.312, a relative viability (EBC-1; first compound 1.265 µM) of 0.093 and a relative viability (EBC-1; first compound 4 µM) of 0.113. It also gave a relative viability (EKVX; first compound 0.04 µM) of 0.836, a relative viability (EKVX; first compound 0.1265 µM) of 0.817 and a relative viability (EKVX; first compound 0.4 µM) of 0.825. The relative viability (EKVX; first compound 1.265 µM) was 0.78, the relative viability (EKVX; first compound 4 µM) was 0.399 and the relative viability (HCC-15; first compound 0.04 µM) was 0.528. For the same molecule, the relative viability (HCC-15; first compound 0.1265 µM) was 0.641, the relative viability (HCC-15; first compound 0.4 µM) was 0.693 and the relative viability (HCC-15; first compound 1.265 µM) was 0.58. The relative viability (HCC-15; first compound 4 µM) was 0.392, the relative viability (HCC-44; first compound 0.04 µM) was 0.978 and the relative viability (HCC-44; first compound 0.1265 µM) was 1.03. It also gave a relative viability (HCC-44; first compound 0.4 µM) of 0.893, a relative viability (HCC-44; first compound 1.265 µM) of 0.851 and a relative viability (HCC-44; first compound 4 µM) of 0.442. The relative viability (IA-LM; first compound 0.04 µM) was 0.739, the relative viability (IA-LM; first compound 0.1265 µM) was 0.508 and the relative viability (IA-LM; first compound 0.4 µM) was 0.17. It also gave a relative viability (IA-LM; first compound 1.265 µM) of 0.115, a relative viability (IA-LM; first compound 4 µM) of 0.117 and a relative viability (LCLC-103H; first compound 0.04 µM) of 0.789. For the same molecule, the relative viability (LCLC-103H; first compound 0.1265 µM) was 0.714, the relative viability (LCLC-103H; first compound 0.4 µM) was 0.605 and the relative viability (LCLC-103H; first compound 1.265 µM) was 0.528. It also gave a relative viability (LCLC-103H; first compound 4 µM) of 0.432, a relative viability (NCI-H1299; first compound 0.04 µM) of 0.931 and a relative viability (NCI-H1299; first compound 0.1265 µM) of 0.787. For the same molecule, the relative viability (NCI-H1299; first compound 0.4 µM) was 0.972, the relative viability (NCI-H1299; first compound 1.265 µM) was 0.298 and the relative viability (NCI-H1299; first compound 4 µM) was 0.235. It also gave a relative viability (NCI-H1395; first compound 0.04 µM) of 0.489, a relative viability (NCI-H1395; first compound 0.1265 µM) of 0.452 and a relative viability (NCI-H1395; first compound 0.4 µM) of 0.449. The relative viability (NCI-H1395; first compound 1.265 µM) was 0.378, the relative viability (NCI-H1395; first compound 4 µM) was 0.356 and the relative viability (NCI-H1648; first compound 0.04 µM) was 0.66. It also gave a relative viability (NCI-H1648; first compound 0.1265 µM) of 1.03, a relative viability (NCI-H1648; first compound 0.4 µM) of 0.462 and a relative viability (NCI-H1648; first compound 1.265 µM) of 0.485. The relative viability (NCI-H1648; first compound 4 µM) was 0.289, the relative viability (NCI-H1703; first compound 0.04 µM) was 0.458 and the relative viability (NCI-H1703; first compound 0.4 µM) was 0.498. It also gave a relative viability (NCI-H1703; first compound 1.265 µM) of 0.236, a relative viability (NCI-H1703; first compound 4 µM) of 0.234 and a relative viability (NCI-H1755; first compound 0.04 µM) of 0.887. For the same molecule, the relative viability (NCI-H1755; first compound 0.1265 µM) was 0.824, the relative viability (NCI-H1755; first compound 0.4 µM) was 0.806 and the relative viability (NCI-H1755; first compound 1.265 µM) was 0.644. For the same molecule, the relative viability (NCI-H1755; first compound 4 µM) was 0.611, the relative viability (UMC-11; first compound 0.04 µM) was 0.359 and the relative viability (UMC-11; first compound 0.1265 µM) was 0.282. It also gave a relative viability (UMC-11; first compound 0.4 µM) of 0.268, a relative viability (UMC-11; first compound 1.265 µM) of 0.142 and a relative viability (UMC-11; first compound 4 µM) of 0.0941.
